From patent US7291349B2, “Anti-dermatophytic preparation and use thereof” (priority 2003, dated 2007)

Tested on: Candida albicans MTCC1637
Test: Broth assay (two fold dilution method) of garlic extract in combination with essential oils
Format: cell-based
Conditions: Table 3
Method: Following tables presents the results of evaluation of antifungal activities of water or solvent extracts of garlic in combinations with the essential oils. […] The combinations of essential oils and garlic extracts were made according to their MICs ([…]). […] But only selected oils viz. Mentha spicata van. […] The activity increased to several folds when these combinations were added to constituent of essential oil like menthyl acetate. […] The broth assay was carried out following the NCCLS documents published by National Committee for Clinical and Laboratory Standards (USA) and disc diffusion assay according to Bauer et al (Bauer et al, […], American Journal of Clinical Pathology, 45:493-496).

Fold enhancement on the basis of Reduction in the MIC of oil in combination (garlic extract 1/1600): 2
Reduction in the MIC of oil (garlic extract 1/1600 in combination): 1/1600
Fold enhancement on the basis of Reduction in the MIC of oil in combination (garlic extract 1/3200): 2
Reduction in the MIC of oil (garlic extract 1/3200 in combination): 1/1600
Fold enhancement on the basis of Reduction in the MIC of oil in combination (garlic extract 1/6400): 2
Reduction in the MIC of oil (garlic extract 1/6400 in combination): 1/1600
MIC of essential oil/extract (alone, dilution): 1/800
Compound: CC(=O)OC1CC(C)CCC1C(C)C (stereo not shown) [Menthyl acetate]
FIC value (garlic extract 1/1600): 1.0
Type of Interaction (garlic extract 1/1600): Indifference
FIC value (garlic extract 1/3200): 0.75
Type of Interaction (garlic extract 1/3200): Additive
FIC value (garlic extract 1/6400): 0.625
Type of Interaction (garlic extract 1/6400): Additive
